Assay results as given in US20080227797A1, “Pyridopyrimidine Derivatives as Pde4 Inhibitors for the Treatment of Inflammatory and Immune Diseases” (ASTRAZENECA AB, priority 2005, published 2008).

The compounds below were run against recombinant Human Phosphodiesterase B2 (PDE4B2) (Homo sapiens, UniProt Q07343) (assay: Human Phosphodiesterase B2 Alpha Screen Assay). Settings: cAMP substrate, Alpha Screen cAMP kit, 60 minutes at room temperature.
Format: biochemical
How it was run: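 Recombinant human PDE4B2 preincubated 15 min at RT with compound in 50 mM Tris pH 7.5, 8.3 mM MgCl2, 1.7 mM EGTA, 0.01% Brij35, then reacted with cAMP for 60 min at RT. Stopped with EDTA; AlphaScreen beads with biotinylated cAMP incubated 5 h in the dark before reading. IC50 from curve fitting.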

recombinant Human Phosphodiesterase B2 (PDE4B2), sequence (Q07343 1-564 isoform Q07343-2): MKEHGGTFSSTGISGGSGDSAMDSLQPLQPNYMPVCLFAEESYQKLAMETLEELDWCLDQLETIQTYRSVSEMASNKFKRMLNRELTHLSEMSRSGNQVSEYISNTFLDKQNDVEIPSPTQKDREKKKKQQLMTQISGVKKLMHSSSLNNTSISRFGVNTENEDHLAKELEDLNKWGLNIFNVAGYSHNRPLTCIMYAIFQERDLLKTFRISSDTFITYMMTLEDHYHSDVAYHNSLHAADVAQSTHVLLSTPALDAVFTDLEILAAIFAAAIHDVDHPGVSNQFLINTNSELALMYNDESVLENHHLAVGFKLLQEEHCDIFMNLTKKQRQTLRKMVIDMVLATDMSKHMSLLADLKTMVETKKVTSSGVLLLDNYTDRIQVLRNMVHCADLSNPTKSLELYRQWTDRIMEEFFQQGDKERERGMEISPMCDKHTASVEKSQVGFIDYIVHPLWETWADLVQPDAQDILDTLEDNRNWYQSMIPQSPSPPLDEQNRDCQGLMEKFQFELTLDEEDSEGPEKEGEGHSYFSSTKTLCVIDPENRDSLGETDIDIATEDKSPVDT

Row | SMILES | IC50
1 | C#Cc1ccc(C(=O)N[C@H]2CC[C@@H](n3c(=O)c4cc(F)cnc4n(-c4ccc(F)c(F)c4)c3=O)CC2)cc1 [Example 102, N-{cis-4-[1-(3,4-difluorophenyl)-6-fluoro-2,4-dioxo-1,4-dihydropyrido[2,3-d]pyrimidin-3(2H)-yl]cyclohexyl}-4-ethynylbenzamide] | 1 nM
2 | O=C(N[C@H]1CC[C@@H](n2c(=O)c3cc(F)cnc3n(-c3ccc(F)c(F)c3)c2=O)CC1)c1cc2cccnc2[nH]1 [Example 103, N-{cis-4-[1-(3,4-difluorophenyl)-6-fluoro-2,4-dioxo-1,4-dihydropyrido[2,3-d]pyrimidin-3(2H)-yl]cyclohexyl}-1H-pyrrolo[2,3-b]pyridine-2-carboxamide] | 0.741 nM
3 | O=C(N[C@H]1CC[C@@H](n2c(=O)c3cc(F)cnc3n(-c3ccc(F)c(F)c3)c2=O)CC1)c1cc2nccnc2s1 [Example 106, N-{cis-4-[1-(3,4-difluorophenyl)-6-fluoro-2,4-dioxo-1,4-dihydropyrido[2,3-d]pyrimidin-3(2H)-yl]cyclohexyl}thieno[2,3-b]pyrazine-6-carboxamide] | 3.89 nM
4 | O=C(N[C@H]1CC[C@@H](n2c(=O)c3cc(F)cnc3n(-c3ccc(F)c(F)c3)c2=O)CC1)c1nc2ncccn2n1 [Example 107, N-{cis-4-[1-(3,4-difluorophenyl)-6-fluoro-2,4-dioxo-1,4-dihydropyrido[2,3-d]pyrimidin-3(2H)-yl]cyclohexyl}[1,2,4]triazolo[1,5-a]pyrimidine-2-carboxamide] | 30.1 nM

Results, then the compound that gave them:

Row | IC50 | SMILES
5 | 2.09 nM | O=C(N[C@H]1CC[C@@H](n2c(=O)c3cc(F)cnc3n(-c3ccc(F)c(F)c3)c2=O)CC1)c1nc2ccccc2s1 [Example 104, N-{cis-4-[1-(3,4-difluorophenyl)-6-fluoro-2,4-dioxo-1,4-dihydropyrido[2,3-d]pyrimidin-3(2H)-yl]cyclohexyl}-1,3-benzothiazole-2-carboxamide]
6 | 6.03 nM | O=C(N[C@H]1CC[C@@H](n2c(=O)c3cc(F)cnc3n(-c3ccc(F)c(F)c3)c2=O)CC1)c1cc2cccnc2s1 [Example 105, N-{cis-4-[1-(3,4-difluorophenyl)-6-fluoro-2,4-dioxo-1,4-dihydropyrido[2,3-d]pyrimidin-3(2H)-yl]cyclohexyl}thieno[2,3-b]pyridine-2-carboxamide]
